The record followed here is US10233179B2, “Thiazoles and uses thereof” (AbbVie Inc., priority 2013, dated 2019).

The test system of series [1] is HEp-2 cells. The experiment in a line: Cytotoxicity assay (MTT) in parallel with the antiviral assay. The class given is cell-based.
Series [2] concerns RSV (Group A, Long Strain). The experiment in a line: Antiviral cytopathic effect (CPE) protection assay, MTT readout. Particulars: human respiratory syncytial virus, 96 h; HEp-2 cells, 0.2 MOI RSV, 4 days incubation, protection from CPE by MTT. Type of series: cell-based. On the technique in general: Damage to the host cells serves as the signal in cytopathic effect assays.
Where [3] appears, read: uninfected HEp-2 cells, 4 days incubation, MTT viability.

Some results are limits rather than exact numbers.

As a reminder, the EC50 is the concentration at which the effect is half-maximal. With `C[C@H](c1ccc(F)cc1)N(Cc1cccn1-c1nccs1)Cc1cccn1-c1nccs1` [Example 62, (1R)-1-(4-fluorophenyl)-N,N-bis{[1-(1,3-thiazol-2-yl)-1H-pyrrol-2-yl]methyl}ethanamine], the “MTT TD50” value in series [1] (setting [3]) was determined as 3.0 µM. Also, the concentration giving a half-maximal response (EC50) in series [2] was over 3000 nM.

`c1coc(CN(Cc2cccn2-c2nccs2)Cc2cccn2-c2nccs2)c1` [Example 63, 1-(furan-2-yl)-N,N-bis{[1-(1,3-thiazol-2-yl)-1H-pyrrol-2-yl]methyl}methanamine]: the “MTT TD50” value in series [1] (setting [3]) worked out at 20 µM. Also, in series [2], the EC50 is 260 nM.

For the compound `CC(Cc1cccs1)N(Cc1cccn1-c1nccs1)Cc1cccn1-c1nccs1` (stereo not drawn) [Example 64, N,N-bis{[1-(1,3-thiazol-2-yl)-1H-pyrrol-2-yl]methyl}-1-(thiophen-2-yl)propan-2-amine], in series [1] (human, 4 days), the “MTT TD50” value was 5.6 µM. The EC50 in series [2] worked out at 330 nM.

As for `c1cncc(C2(CN(Cc3cccn3-c3nccs3)Cc3cccn3-c3nccs3)CC2)c1` [Example 65, 1-[1-(pyridin-3-yl)cyclopropyl]-N,N-bis{[1-(1,3-thiazol-2-yl)-1H-pyrrol-2-yl]methyl}methanamine], the “MTT TD50” value in series [1] (setting [3]) came out at 25 µM. Also, in series [2], the EC50 turned out to be 90 nM.

On to `c1cc(CN(CCC2(c3ccncc3)CC2)Cc2cccn2-c2nccs2)n(-c2nccs2)c1` [Example 66, 2-[1-(pyridin-4-yl)cyclopropyl]-N,N-bis{[1-(1,3-thiazol-2-yl)-1H-pyrrol-2-yl]methyl}ethanamine], for which, in series [1] (setting [3]), the “MTT TD50” value came to 14 µM. Also, in series [2], the EC50 was found to be 200 nM.

In the case of `N#Cc1cc(CN(Cc2cccn2-c2nccs2)Cc2cccn2-c2nccs2)cs1` [Example 67, 4-[(bis{[1-(1,3-thiazol-2-yl)-1H-pyrrol-2-yl]methyl}amino)methyl]thiophene-2-carbonitrile], the “MTT TD50” value in series [1] (setting [3]) is over 32 µM. This compound came in with an EC50 in series [2] of 82 nM.
